Measured values from paper PMC5529566, “The cryo-EM structure of gastric H^+,K^+-ATPase with bound BYK99, a high-affinity member of K^+-competitive, imidazo[1,2-a]pyridine inhibitors” (Scientific Reports, 2017).

Columns and labels:
H^+,K^+-ATPase A339S = H^+,K^+-ATPase A339S (Sus scrofa, UniProt P19156, A340S); assay: ATPase assay, A339S mutant
H^+,K^+-ATPase Y140F = H^+,K^+-ATPase Y140F (Sus scrofa, UniProt P19156, Y141F); assay: ATPase assay, Y140F mutant
H^+,K^+-ATPase D136I = H^+,K^+-ATPase D136I (Sus scrofa, UniProt P19156, D137I); assay: ATPase assay, D136I mutant
H^+,K^+-ATPase A335G = H^+,K^+-ATPase A335G (Sus scrofa, UniProt P19156, A336G); assay: ATPase assay, A335G mutant
H^+,K^+-ATPase N138L = H^+,K^+-ATPase N138L (Sus scrofa, UniProt P19156, N139L); assay: ATPase assay, N138L mutant
H^+,K^+-ATPase N138D = H^+,K^+-ATPase N138D (Sus scrofa, UniProt P19156, N139D); assay: ATPase assay, N138D mutant
H^+,K^+-ATPase Y799F = H^+,K^+-ATPase Y799F (Sus scrofa, UniProt P19156, Y800F); assay: ATPase assay, Y799F mutant
H^+,K^+-ATPase D137A = H^+,K^+-ATPase D137A (Sus scrofa, UniProt P19156, D138A); assay: ATPase assay, D137A mutant
H^+,K^+-ATPase V331F = H^+,K^+-ATPase V331F (Sus scrofa, UniProt P19156, V332F); assay: ATPase assay, V331F mutant
H^+,K^+-ATPase M334F = H^+,K^+-ATPase M334F (Sus scrofa, UniProt P19156, M335F); assay: ATPase assay, M334F mutant
H^+,K^+-ATPase Q127A = H^+,K^+-ATPase Q127A (Sus scrofa, UniProt P19156, Q128A); assay: ATPase assay, Q127A mutant
H^+,K^+-ATPase L139A = H^+,K^+-ATPase L139A (Sus scrofa, UniProt P19156, L140A); assay: ATPase assay, L139A mutant
H^+,K^+-ATPase L139F = H^+,K^+-ATPase L139F (Sus scrofa, UniProt P19156, L140F); assay: ATPase assay, L139F mutant
H^+,K^+-ATPase Y140A = H^+,K^+-ATPase Y140A (Sus scrofa, UniProt P19156, Y141A); assay: ATPase assay, Y140A mutant
H^+,K^+-ATPase N138F = H^+,K^+-ATPase N138F (Sus scrofa, UniProt P19156, N139F); assay: ATPase assay, N138F mutant
H^+,K^+-ATPase Y140I = H^+,K^+-ATPase Y140I (Sus scrofa, UniProt P19156, Y141I); assay: ATPase assay, Y140I mutant
H^+,K^+-ATPase L796F = H^+,K^+-ATPase L796F (Sus scrofa, UniProt P19156, L797F); assay: ATPase assay, L796F mutant
H^+,K^+-ATPase I126A = biological target: T1, H^+,K^+-ATPase I126A (Sus scrofa, UniProt P19156, I127A); assay: ATPase assay, I126A mutant; assay type: biochemical, pig
T1 construct: made in house; host or cells: HEK293S GnT1- cells (BacMam baculovirus transduction); permeabilised membrane fractions

H^+,K^+-ATPase L800F = H^+,K^+-ATPase L800F (Sus scrofa, UniProt P19156, L801F); assay: ATPase assay, L800F mutant
H^+,K^+-ATPase L809F = H^+,K^+-ATPase L809F (Sus scrofa, UniProt P19156, L810F); assay: ATPase assay, L809F mutant
H^+,K^+-ATPase D137E = biological target: T2, H^+,K^+-ATPase D137E (Sus scrofa, UniProt P19156, D138E); assay: ATPase assay, D137E mutant; assay type: biochemical, pig
T2 construct: made in house; host or cells: HEK293S GnT1- cells (BacMam baculovirus transduction), membrane fraction

[1] = biological target: H^+,K^+-ATPase A335C/C813A (Sus scrofa, UniProt P19156, A336C/C814A); assay: ATPase assay, A335C/C813A mutant
H^+,K^+-ATPase I126F = biological target: T3, H^+,K^+-ATPase I126F (Sus scrofa, UniProt P19156, I127F); assay: ATPase assay, I126F mutant; assay type: biochemical, pig
T3 construct: made in house; host or cells: HEK293S GnT1- cells (BacMam baculovirus transduction); permeabilised membrane fractions

H^+,K^+-ATPase = H^+,K^+-ATPase (Sus scrofa, UniProt P19156); assay: Dose-dependent inhibition of H^+,K^+-ATPase activity in the presence of 10 mM KCl
H^+,K^+-ATPase A335V = H^+,K^+-ATPase A335V (Sus scrofa, UniProt P19156, A336V); assay: ATPase assay, A335V mutant
H^+,K^+-ATPase L139I = H^+,K^+-ATPase L139I (Sus scrofa, UniProt P19156, L140I); assay: ATPase assay, L139I mutant

Chain of H^+,K^+-ATPase A335G (P19156 whole entry A336G): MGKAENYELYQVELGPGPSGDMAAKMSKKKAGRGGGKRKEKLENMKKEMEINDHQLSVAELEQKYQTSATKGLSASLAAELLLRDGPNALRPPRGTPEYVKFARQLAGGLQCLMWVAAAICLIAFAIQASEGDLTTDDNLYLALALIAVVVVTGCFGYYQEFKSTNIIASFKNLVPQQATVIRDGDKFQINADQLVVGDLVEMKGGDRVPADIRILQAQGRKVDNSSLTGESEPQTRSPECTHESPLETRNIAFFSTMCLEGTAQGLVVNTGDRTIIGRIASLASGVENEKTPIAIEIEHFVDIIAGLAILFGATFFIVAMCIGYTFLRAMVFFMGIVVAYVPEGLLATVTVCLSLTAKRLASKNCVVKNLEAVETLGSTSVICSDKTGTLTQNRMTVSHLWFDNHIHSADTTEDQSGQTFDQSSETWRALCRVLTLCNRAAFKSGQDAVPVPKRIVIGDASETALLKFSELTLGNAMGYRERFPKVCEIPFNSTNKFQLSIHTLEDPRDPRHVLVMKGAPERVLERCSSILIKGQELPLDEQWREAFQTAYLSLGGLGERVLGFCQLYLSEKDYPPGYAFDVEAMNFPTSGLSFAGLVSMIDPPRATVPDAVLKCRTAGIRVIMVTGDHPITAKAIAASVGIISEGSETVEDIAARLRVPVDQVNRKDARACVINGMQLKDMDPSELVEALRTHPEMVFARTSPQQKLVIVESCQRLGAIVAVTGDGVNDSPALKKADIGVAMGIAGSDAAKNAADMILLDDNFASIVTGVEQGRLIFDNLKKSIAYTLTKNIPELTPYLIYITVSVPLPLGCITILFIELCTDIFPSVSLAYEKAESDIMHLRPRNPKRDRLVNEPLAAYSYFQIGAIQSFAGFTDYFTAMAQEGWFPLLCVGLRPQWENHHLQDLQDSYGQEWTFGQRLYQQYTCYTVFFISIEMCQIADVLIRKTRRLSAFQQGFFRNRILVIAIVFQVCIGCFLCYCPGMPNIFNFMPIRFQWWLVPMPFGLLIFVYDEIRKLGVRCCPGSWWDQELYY
Chain of H^+,K^+-ATPase A335G (P18434 whole entry partner): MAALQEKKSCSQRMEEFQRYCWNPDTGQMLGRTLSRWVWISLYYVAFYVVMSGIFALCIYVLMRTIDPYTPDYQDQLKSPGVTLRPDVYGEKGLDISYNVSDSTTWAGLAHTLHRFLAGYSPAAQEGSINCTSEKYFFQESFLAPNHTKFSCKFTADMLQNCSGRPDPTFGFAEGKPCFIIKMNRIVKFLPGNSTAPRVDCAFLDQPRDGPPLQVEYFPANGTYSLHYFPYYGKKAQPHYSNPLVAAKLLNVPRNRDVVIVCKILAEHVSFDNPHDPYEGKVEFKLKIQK
Chain of H^+,K^+-ATPase L139A (P19156 whole entry L140A): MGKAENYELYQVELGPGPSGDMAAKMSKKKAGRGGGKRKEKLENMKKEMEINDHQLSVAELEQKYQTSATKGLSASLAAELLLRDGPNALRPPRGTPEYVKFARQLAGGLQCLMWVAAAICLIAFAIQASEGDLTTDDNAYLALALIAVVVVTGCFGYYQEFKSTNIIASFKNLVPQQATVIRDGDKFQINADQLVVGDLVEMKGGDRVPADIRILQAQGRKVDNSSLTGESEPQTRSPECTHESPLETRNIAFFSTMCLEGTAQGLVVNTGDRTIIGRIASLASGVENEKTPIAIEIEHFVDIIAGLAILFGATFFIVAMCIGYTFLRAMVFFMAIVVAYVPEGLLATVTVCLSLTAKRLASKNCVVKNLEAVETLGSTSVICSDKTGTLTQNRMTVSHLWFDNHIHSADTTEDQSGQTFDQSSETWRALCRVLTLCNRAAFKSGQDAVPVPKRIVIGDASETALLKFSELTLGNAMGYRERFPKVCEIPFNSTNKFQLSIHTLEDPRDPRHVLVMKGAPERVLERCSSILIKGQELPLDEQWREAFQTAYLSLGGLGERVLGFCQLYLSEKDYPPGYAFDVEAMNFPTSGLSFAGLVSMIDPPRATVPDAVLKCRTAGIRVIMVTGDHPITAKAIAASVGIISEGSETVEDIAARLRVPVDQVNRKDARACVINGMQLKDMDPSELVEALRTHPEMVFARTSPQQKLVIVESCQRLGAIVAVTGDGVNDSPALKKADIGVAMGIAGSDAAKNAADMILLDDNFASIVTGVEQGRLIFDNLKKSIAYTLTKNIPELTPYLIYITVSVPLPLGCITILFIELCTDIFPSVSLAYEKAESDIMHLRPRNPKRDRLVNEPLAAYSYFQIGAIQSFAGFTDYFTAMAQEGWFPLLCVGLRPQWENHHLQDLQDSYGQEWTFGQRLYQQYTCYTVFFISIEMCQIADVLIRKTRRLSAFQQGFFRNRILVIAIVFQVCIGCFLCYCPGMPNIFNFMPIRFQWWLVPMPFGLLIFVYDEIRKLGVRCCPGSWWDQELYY
Chain of H^+,K^+-ATPase L139A (P18434 whole entry partner): as the sequence (P18434 whole entry partner) above
Chain of H^+,K^+-ATPase N138L (P19156 whole entry N139L): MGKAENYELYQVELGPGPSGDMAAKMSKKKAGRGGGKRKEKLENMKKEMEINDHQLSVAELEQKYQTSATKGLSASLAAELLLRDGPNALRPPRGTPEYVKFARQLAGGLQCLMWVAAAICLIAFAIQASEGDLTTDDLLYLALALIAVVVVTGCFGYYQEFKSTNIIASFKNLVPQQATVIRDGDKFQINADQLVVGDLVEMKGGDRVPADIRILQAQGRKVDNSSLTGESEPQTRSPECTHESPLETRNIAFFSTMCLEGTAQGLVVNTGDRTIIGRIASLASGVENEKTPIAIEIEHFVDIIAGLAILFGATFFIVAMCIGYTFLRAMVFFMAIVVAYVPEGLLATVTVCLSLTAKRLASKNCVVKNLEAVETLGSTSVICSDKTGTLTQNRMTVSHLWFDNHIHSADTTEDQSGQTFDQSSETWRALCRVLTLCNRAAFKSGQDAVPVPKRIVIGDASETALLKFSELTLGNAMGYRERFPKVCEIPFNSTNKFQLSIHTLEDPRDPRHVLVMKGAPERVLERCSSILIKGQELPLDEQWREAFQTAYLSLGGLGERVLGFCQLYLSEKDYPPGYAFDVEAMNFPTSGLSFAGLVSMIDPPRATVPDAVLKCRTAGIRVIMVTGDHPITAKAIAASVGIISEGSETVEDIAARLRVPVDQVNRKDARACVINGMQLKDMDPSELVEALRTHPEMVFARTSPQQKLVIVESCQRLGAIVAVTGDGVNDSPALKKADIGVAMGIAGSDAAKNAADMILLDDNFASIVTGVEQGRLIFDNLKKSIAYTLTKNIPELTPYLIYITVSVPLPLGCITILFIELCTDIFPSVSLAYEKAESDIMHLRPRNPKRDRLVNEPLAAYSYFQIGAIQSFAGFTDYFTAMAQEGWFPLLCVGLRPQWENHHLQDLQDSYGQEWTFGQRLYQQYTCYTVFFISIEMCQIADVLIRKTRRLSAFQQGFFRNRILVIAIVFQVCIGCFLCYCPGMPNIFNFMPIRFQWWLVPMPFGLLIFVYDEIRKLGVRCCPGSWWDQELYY
Chain of H^+,K^+-ATPase N138L (P18434 whole entry partner): as the sequence (P18434 whole entry partner) above
Chain of H^+,K^+-ATPase L139F (P19156 whole entry L140F): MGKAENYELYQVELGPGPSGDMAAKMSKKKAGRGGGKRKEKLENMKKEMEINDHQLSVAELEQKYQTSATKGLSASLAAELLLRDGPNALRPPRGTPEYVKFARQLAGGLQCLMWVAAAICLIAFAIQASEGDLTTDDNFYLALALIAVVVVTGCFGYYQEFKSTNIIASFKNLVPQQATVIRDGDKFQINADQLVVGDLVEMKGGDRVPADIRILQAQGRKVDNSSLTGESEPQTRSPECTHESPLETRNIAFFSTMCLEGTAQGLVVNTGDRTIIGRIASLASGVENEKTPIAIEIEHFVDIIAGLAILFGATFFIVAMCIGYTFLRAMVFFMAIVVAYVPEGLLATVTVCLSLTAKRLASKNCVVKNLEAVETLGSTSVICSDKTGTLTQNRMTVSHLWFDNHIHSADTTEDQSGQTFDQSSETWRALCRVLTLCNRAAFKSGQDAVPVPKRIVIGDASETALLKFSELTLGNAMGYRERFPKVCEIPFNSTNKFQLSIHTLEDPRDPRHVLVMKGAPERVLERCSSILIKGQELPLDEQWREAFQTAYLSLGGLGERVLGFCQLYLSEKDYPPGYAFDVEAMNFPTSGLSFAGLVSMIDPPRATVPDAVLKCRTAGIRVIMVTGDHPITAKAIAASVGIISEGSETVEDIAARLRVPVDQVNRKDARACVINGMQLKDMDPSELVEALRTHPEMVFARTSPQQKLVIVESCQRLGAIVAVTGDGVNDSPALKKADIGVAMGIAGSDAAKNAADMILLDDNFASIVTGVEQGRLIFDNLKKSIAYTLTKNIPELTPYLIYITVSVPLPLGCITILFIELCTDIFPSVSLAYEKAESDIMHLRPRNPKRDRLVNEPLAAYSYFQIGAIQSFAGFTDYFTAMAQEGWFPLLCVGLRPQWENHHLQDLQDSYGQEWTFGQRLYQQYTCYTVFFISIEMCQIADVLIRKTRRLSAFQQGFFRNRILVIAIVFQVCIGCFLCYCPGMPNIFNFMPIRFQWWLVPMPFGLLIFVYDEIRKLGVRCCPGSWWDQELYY
Chain of H^+,K^+-ATPase L139F (P18434 whole entry partner): as the sequence (P18434 whole entry partner) above

`Cc1nc2c3c(ccn2c1C)[C@@H](O)[C@H](O)[C@@H](c1ccccc1)N3` [BYK99] was tested, and the Ki (H^+,K^+-ATPase A339S) was 21 ± 1 nM, the “-fold increase in K i compared with wild-type” value (“-fold increase in K i” below) (H^+,K^+-ATPase A339S; A339S) was 3.6 fold and the Ki (H^+,K^+-ATPase Y140F) was 35 ± 6 nM. For the same molecule, the “-fold increase in K i” value (H^+,K^+-ATPase Y140F; Y140F) was 6.0 fold, the Ki (H^+,K^+-ATPase D136I) was 15 ± 2 nM and the “-fold increase in K i” value (H^+,K^+-ATPase D136I; D136I) was 2.6 fold. For the same molecule, the Ki (H^+,K^+-ATPase A335G) was 1.2 ± 0.1 nM, the “-fold increase in K i” value (H^+,K^+-ATPase A335G; A335G) was 0.2 fold and the fold increased affinity (H^+,K^+-ATPase A335G; A335G vs WT) was 5 fold. For the same molecule, the Ki (H^+,K^+-ATPase N138L) was 1300 ± 500 nM, the “-fold increase in K i” value (H^+,K^+-ATPase N138L; N138L) was 220 fold and the Ki (H^+,K^+-ATPase N138D) was 7.7 ± 0.7 nM. For the same molecule, the “-fold increase in K i” value (H^+,K^+-ATPase N138D; N138D) was 1.3 fold, the Ki (H^+,K^+-ATPase Y799F) was 110 ± 10 nM and the “-fold increase in K i” value (H^+,K^+-ATPase Y799F; Y799F) was 19 fold. For the same molecule, the Ki (H^+,K^+-ATPase D137A) was 81 ± 13 nM, the “-fold increase in K i” value (H^+,K^+-ATPase D137A; D137A) was 14 fold and the Ki (H^+,K^+-ATPase V331F) was 15 ± 2 nM. The “-fold increase in K i” value (H^+,K^+-ATPase V331F; V331F) was 2.3 fold, the Ki (H^+,K^+-ATPase M334F) was 16 ± 4 nM and the “-fold increase in K i” value (H^+,K^+-ATPase M334F; M334F) was 2.8 fold. For the same molecule, the Ki (H^+,K^+-ATPase Q127A) was 19 ± 1 nM, the “-fold increase in K i” value (H^+,K^+-ATPase Q127A; Q127A) was 3.3 fold and the Ki (H^+,K^+-ATPase L139A) was 14 ± 2 nM. The “-fold increase in K i” value (H^+,K^+-ATPase L139A; L139A) was 2.4 fold, the Ki (H^+,K^+-ATPase L139F) was 18 ± 3 nM and the “-fold increase in K i” value (H^+,K^+-ATPase L139F; L139F) was 3.1 fold. For the same molecule, the Ki (H^+,K^+-ATPase Y140A) was 25 ± 3 nM, the “-fold increase in K i” value (H^+,K^+-ATPase Y140A; Y140A) was 4.3 fold and the Ki (H^+,K^+-ATPase N138F) was 7700 ± 1200 nM. For the same molecule, the “-fold increase in K i” value (H^+,K^+-ATPase N138F; N138F) was 1300 fold, the Ki (H^+,K^+-ATPase Y140I) was 4.3 ± 0.5 nM and the “-fold increase in K i” value (H^+,K^+-ATPase Y140I; Y140I) was 0.7 fold. For the same molecule, the Ki (H^+,K^+-ATPase L796F) was 106 ± 10 nM, the “-fold increase in K i” value (H^+,K^+-ATPase L796F; L796F) was 18 fold and the “-fold increase in K i” value (H^+,K^+-ATPase I126A; I126A) was 19 fold. For the same molecule, the Ki (H^+,K^+-ATPase I126A; I126A (M1), high H^+-ATPase activity, K i determined by K m/V max plot) was 110 ± 50 nM, the Ki (H^+,K^+-ATPase L800F) was 59 ± 5 nM and the “-fold increase in K i” value (H^+,K^+-ATPase L800F; L800F) was 10 fold. The Ki (H^+,K^+-ATPase L809F) was 850 ± 130 nM, the “-fold increase in K i” value (H^+,K^+-ATPase L809F; L809F) was 150 fold and the “-fold increase in K i” value (H^+,K^+-ATPase D137E) was 9.8 fold. The Ki (H^+,K^+-ATPase D137E; high H^+-ATPase activity, K i' determined by K m/V max plot) was 57 ± 16 nM, the Ki [1] was > 1000 nM and the “-fold increase in K i” value ([1]; A335C/C813A) was > 170 fold. For the same molecule, the “-fold increase in K i” value (H^+,K^+-ATPase I126F; I126F) was 4.1 fold, the Ki (H^+,K^+-ATPase I126F; I126F (M1), high H^+-ATPase activity, K i determined by K m/V max plot) was 24 ± 15 nM and the IC50 (H^+,K^+-ATPase) was 77 nM. The Ki (H^+,K^+-ATPase A335V) was > 1000 nM, the “-fold increase in K i” value (H^+,K^+-ATPase A335V; A335V) was > 170 fold and the Ki (H^+,K^+-ATPase L139I) was 2.6 ± 0.2 nM. For the same molecule, the “-fold increase in K i” value (H^+,K^+-ATPase L139I; L139I) was 0.4 fold.
